Measured values taken from patent US20030064380A1, “Anergy-regulated molecules” (The Center For Blood Research, Inc., priority 2001, published 2003).

Assays:
[1] = tested on: caspase-3; experiment: Western blotting of ionomycin-treated T cells; type: cell-based, murine
Method: Total cellular extracts were prepared by boiling cell pellets directly in SDS containing loading buffer to prevent proteolysis during cell lysis. Antibodies against caspase-3 (Santa Cruz) and active caspase-3 (Cell Signaling) were used. The polyclonal antibody 67.1 against NFAT1 has been described (Okamura et al., (2000) Mol. Cell. 6: 539-550).
(§1) Of particular interest was the fact that several of the ionomycin-induced genes encoded proteins involved (or potentially involved) in protein degradation. Candidate genes in this category included caspase-3, SOCS-2 and Traf5 (FIG. 6B). Caspase-3 is an enzyme for which commercial reagents are readily available. Tests were conducted to determine whether caspase-3 was activated and functional in ionomycin-pretreated T cells. […] Further work will be necessary to establish whether proteolysis occurs in specific intracellular compartments relevant to TCR signal transduction or whether other signaling proteins are substrates for proteolysis in anergic cells.

[2] = tested on: D5 or primary T cells; experiment: apoptosis assays of ionomycin-stimulated T cells; type: cell-based, murine; conditions: several independent assays
Method: Apoptosis was detected by the Tunel method using the In situ Cell Death Detection kit (Boheringer) following manufacture's instructions. Stained cells were analyzed on a FACSCAN (Beckton-Dickinson).
as §1

[3] = tested on: Th1 cells; experiment: cytokine mRNA induction in primary Th1 cells after tolerising pretreatment; type: cell-based, mice
Method: The murine Th1 cell clone D5 (Ar-5) was cultured as previously described (Agarwal and Rao, (1998) Immunity 9: 765-775). Primary CD4+T cells were isolated from lymph nodes and spleen of NFAT1−/− or wild type DO11.10 transgenic mice using magnetic beads (Dynal), and differentiated in vitro by stimulating for one week with irradiated APC and 1 μg/ml OVA as previously described (Agarwal and Rao, (1998) Immunity 9: 765-775). Jurkat and Phoenix Ecotropic cells were cultured in Dulbecco's modified Eagle's medium supplemented with 10% fetal calf serum, 10 mM HEPES and 2 mM glutamine.
(§2) Total cellular RNA was purified from resting cells or cells stimulated with APC and antigen or anti-CD3 plus anti-CD28 for 4 h, using Ultraspec reagent (Biotecx) and analyzed using the RiboQuant multiprobe RNase protection kit and specific multi-set probes (Pharmingen) according to the manufacturer's instructions. Jurkat cells were transfected by electroporation in serum-free medium with pulses of 250 V and 960 μF with […] of pEGFPN1 (Clontech) or pNLS-NFAT1 (ST2+5+8) (Okamura et al., (2000) Mol. Cell. 6: 539-550). RNA from transiently transfected Jurkat cells was obtained after selecting transfected cells for expression of a cotransfected murine CD4 plasmid using magnetic beads (Dynal).
Thus the net effect of a tolerising stimulus on T cells is to skew the cytokine response towards production of the immunosuppressive cytokine […], while down-regulating production of multiple other cytokines and chemokines associated with a productive immune response.
The anergised cells were fully responsive to PMA and ionomycin, stimuli which bypass the membrane-proximal steps of TCR signal transduction.

[4] = tested on: D5 and Th1 cells; experiment: gene transcription profiles of ionomycin-induced genes (FIGS. 6B, 7B), Affymetrix arrays and real-time RT-PCR; type: cell-based, murine
Method: D5 or primary T cells from NFAT1−/− or wild type DO11.10 transgenic mice were stimulated for 2, 6 or 16 hours with 500 nM ionomycin, 20 nM PMA plus 500 nM ionomycin, or 1 μM CsA plus 500 nM ionomycin. Total RNA was isolated with an RNeasy kit (QIAGEN). Ten μg of total RNA was quantitatively amplified and biotin-labeled as described (Byrne et al., (2000) “Preparation of mRNA for Expression Monitoring” Current Protocols in Molecular Biology (John Wiley & Sons, Inc.) pp. 22.22.21-22.22.13). Hybridization to GeneChips® (Affymetrix) displaying probes for 11,000 mouse genes/ESTs was performed at 40° C. overnight in a mix that included 10 μg fragmented RNA, 6× SSPE, 0.005% Triton X-100 and 100 μg/ml herring sperm DNA in a total volume of 200 μl. Chips were washed, stained with SA-PE and read using an Affymetrix GeneChip® scanner and accompanying gene expression software. […]
Total RNA was prepared from resting or stimulated T cells using Ultraspec reagent (Biotecx). cDNA was synthesized using oligo-dT primers and Superscript polymerase (Invitrogen) following the manufacturer's recommendations. Quantitative real-time PCR was performed in an I-Cycler (BioRad) using a SYBR Green PCR kit from Applied Biosystems and specific primers to amplify 100-200 bp fragments from the different genes analyzed. A threshold was set in the linear part of the amplification curve (fluorescence=f[cycle number]) and the number of cycles needed to reach it calculated for every gene. […]
Among them were many ESTs with no assigned function; a single cytokine gene, M-CSF; genes in other functional categories as shown in FIG. 6B; but no other genes normally associated with a productive immune response. […] To validate the array data, expression of 15 of the 18 genes were evaluated by quantitative real-time RT-PCR, and in every case ionomycin-mediated induction was confirmed (see numbers within panels of FIG. 6B). […]

[5] = tested on: D5 cells; experiment: transcription of inducible genes in ionomycin-treated D5 cells on second stimulation (RNase protection); type: cell-based, murine; conditions: second stimulation with anti-CD3/anti-CD28 or antigen/APC
Method: as §2
The murine antigen-specific Th1 clone D5 was used to set up the model of clonal anergy developed by Schwartz and coworkers (Schwartz, (1996) J. Exp. Med. 184: 1-8).

[6] = primary Th1 cells, pretreatment, subsequent stimulation with antigen

For C[C@H](CCC(=O)O)C[C@H](C)C[C@H](C)C(=O)/C=C(\O)[C@H](C)C[C@H](C)C/C=C/[C@@H](C)[C@@H](O)[C@@H](C)[C@@H](O)C[C@@H]1CC[C@@](C)([C@H]2CC[C@@](C)([C@@H](C)O)O2)O1 [Ionomycin, ionomycin], the “caspase-3 protein (procaspase 3, p20 and active p17 forms)” value ([1]; ionomycin-treated T cells, 6 h to 16-18 h) was “induced at the protein level and activated”, the “cleavage of Vav-1, Gads and PKC-theta” value ([1]; treated D5 cells, Western blots) was “minor cleavage” and the apoptosis [2] was “no detectable apoptosis”. The “induction of IL-2 and IFN-γ mRNA” value ([3]; NFAT1−/− Th1 cells, after pretreatment) was “perceptible induction”, the “effect on Fas-L mRNA” value [3, 6] was “less effect” and the “induction of IL-2, IFN-γ, IL-10, TNF-α and MIP-1α mRNAs” value [3, 6] was “pronounced decrease”. The “induction of L-2 and IFN-γ mRNA” value ([3]; wildtype DO11.10 Th1 T cells, pretreatment) was “markedly decreased”, the “induction of Grg4, Ikaros, PTP-1B and GBP-3” value ([4]; compared to PMA/ionomycin) was “more strongly induced” and the “induction of Rab-10” value ([4]; early times) was “markedly induced”. For the same compound, the “induction of jumonji, CD98 and FasL” value ([4]; ionomycin versus PMA/ionomycin) was “similarly induced” and the “transcription of inducible genes including IL-2, IFN-γ, TNF-α, GM-CSF and MIP-1α” value [5] was “markedly decreased”.
